# Earlier results, collected in PubChem BioAssay AID1259409 (Chemical Carcinogenesis Research Information System (CCRIS), 2018).
# Test system: rodent chemically induced tumor inhibition, incidence and multiplicity
# Assay: CCRIS tumor inhibitor studies
# Conditions: Route [Inhibitor]: ORAL
smiles,measurement,setting,value
Cc1c(C)c2c(c(C)c1O)CC[C@@](C)(CCC[C@H](C)CCC[C@H](C)CCCC(C)C)O2,"tumour outcome (control, treated, inhibition, significance)","Carcinogen: 3,2-DIMETHYL-4-AMINOBIPHENYL, 13394-86-0, Dose [Inhibitor]: 0, 1% IN BASAL DIET BEGINNING POST CARCINOGEN TREATMENT AND CONTINUING FOR 40 WK (STUDY DURATION: 60 WK), Species: RAT, Strain/Sex: F344/MALE, Target Tissue: Type of Lesion: PANCREAS: ACINAR CELL NODULE, Dose [Carcinogen]: 50 MG/KG 1/2 WK FOR 20 WK TO RATS MAINTAINED ON ETHINYL ESTRADIOL CONTAINING DIET (0.75 PPM) FOR 1 WK CYCLED WITH ETHINY, Promoter: ETHINYL ESTRADIOL, 57-63-6","4/10 (40%), 5/12 (42%), -5%, not significant"
same,"tumour outcome (control, treated, inhibition, significance)","Carcinogen: 3,2-DIMETHYL-4-AMINOBIPHENYL, 13394-86-0, Dose [Inhibitor]: 0, 1% IN BASAL DIET BEGINNING POST CARCINOGEN TREATMENT AND CONTINUING FOR 40 WK (STUDY DURATION: 60 WK), Species: RAT, Strain/Sex: F344/MALE, Target Tissue: Type of Lesion: PROSTATE: CARCINOMA, Dose [Carcinogen]: 50 MG/KG 1/2 WK FOR 20 WK TO RATS MAINTAINED ON ETHINYL ESTRADIOL CONTAINING DIET (0.75 PPM) FOR 1 WK CYCLED WITH ETHINY, Promoter: ETHINYL ESTRADIOL, 57-63-6","5/10 (50%), 6/12 (50%), 0%, not significant"
same,"tumour outcome (control, treated, inhibition, significance)","Carcinogen: 4-NITROQUINOLINE 1-OXIDE, 56-57-5, Dose [Inhibitor]: 25.5, 550.9 MG/KG IN DIET FOR DURATION OF STUDY (STUDY DURATION: 23 WK), Species: MOUSE, Strain/Sex: DDY/MALE, Target Tissue: Type of Lesion: LUNG: TUMOR, Dose [Carcinogen]: 10 MG/KG BW SUSPENDED IN OLIVE OIL AND CHOLESTEROL (20:1, W/W) ONCE, Promoter: NONE USED","6/11 (55%), 4/11 (36%), 36%, not significant"
same,"tumour outcome (control, treated, inhibition, significance)","Carcinogen: 4-NITROQUINOLINE 1-OXIDE, 56-57-5, Dose [Inhibitor]: EXCESSIVE VITAMIN E (DOSE NOT STATED) IN THE DIET FOR 4 WK POST CARCINOGEN DOSE (STUDY DURATION: 23 WK), Species: MOUSE, Strain/Sex: DDY/MALE, Target Tissue: Type of Lesion: LUNG: TUMOR, Dose [Carcinogen]: 10 MG/KG BW ONCE, Promoter: GLYCEROL, 56-81-5","9/11 (82%), 5/11 (45%), 45%, not calculated"
same,"tumour outcome (control, treated, inhibition, significance)","Carcinogen: 4-NITROQUINOLINE 1-OXIDE, 56-57-5, Dose [Inhibitor]: EXCESSIVE VITAMIN E (DOSE NOT STATED) IN THE DIET FOR 23 WK POST CARCINOGEN DOSE (STUDY DURATION: 23 WK), Species: MOUSE, Strain/Sex: DDY/MALE, Target Tissue: Type of Lesion: LUNG: TUMOR, Dose [Carcinogen]: 10 MG/KG BW ONCE, Promoter: GLYCEROL, 56-81-5","9/11 (82%), 2/9 (22%), 73%, not calculated"
same,"tumour outcome (control, treated, inhibition, significance)","Carcinogen: 7,12-DIMETHYLBENZ[A]ANTHRACENE, 57-97-6, Dose [Inhibitor]: 0, 3.349 UMOL/G IN DIET FOR DURATION OF STUDY (STUDY DURATION: 18 WK), Species: RAT, Strain/Sex: SPRAGUE-DAWLEY/FEMALE, Target Tissue: Type of Lesion: MAMMARY GLAND: TUMOR, Dose [Carcinogen]: 50 MG/KG IN SESAME OIL ONCE, Promoter: NONE USED","88%, 79%, 10%, not significant"
same,"tumour outcome (control, treated, inhibition, significance)","Carcinogen: 7,12-DIMETHYLBENZ[A]ANTHRACENE, 57-97-6, Dose [Inhibitor]: 0.2% IN DIET FROM WEANING ONWARD (STUDY DURATION: 6 MO AFTER CARCINOGEN ADMINISTRATION), Species: RAT, Strain/Sex: SPRAGUE-DAWLEY/FEMALE, Target Tissue: Type of Lesion: MAMMARY GLAND: TUMOR, Dose [Carcinogen]: 10 MG/RAT IN 1 ML STRIPPED CORN OIL SINGLE DOSE ON D 50 FOLLOWING 24 HR FASTING PERIOD, Promoter: NONE USED","70%, 70%, 0%, not calculated"
same,"tumour outcome (control, treated, inhibition, significance)","Carcinogen: 7,12-DIMETHYLBENZ[A]ANTHRACENE, 57-97-6, Dose [Inhibitor]: 0.2% IN DIET FROM WEANING ONWARD (STUDY DURATION: 6 MO AFTER CARCINOGEN ADMINISTRATION), Species: RAT, Strain/Sex: SPRAGUE-DAWLEY/FEMALE, Target Tissue: Type of Lesion: MAMMARY GLAND: TUMOR, Dose [Carcinogen]: 10 MG/RAT IN 1 ML STRIPPED CORN OIL, SINGLE DOSE ON D 5 FOLLOWING 24 HR FASTING PERIOD, Promoter: NONE USED","40%, 37%, 8%, not calculated"
same,"tumour outcome (control, treated, inhibition, significance)","Carcinogen: 7,12-DIMETHYLBENZ[A]ANTHRACENE, 57-97-6, Dose [Inhibitor]: 0.2% IN DIET FROM WEANING ONWARD (STUDY DURATION: 6 MO AFTER CARCINOGEN ADMINISTRATION), Species: RAT, Strain/Sex: SPRAGUE-DAWLEY/FEMALE, Target Tissue: Type of Lesion: MAMMARY GLAND: TUMOR, Dose [Carcinogen]: 10 MG/RAT IN 1 ML STRIPPED CORN OIL, SINGLE DOSE ON D 50 FOLLOWING 24 HR FASTING PERIOD, Promoter: NONE USED","100%, 100%, 0%, not calculated"
same,"tumour outcome (control, treated, inhibition, significance)","Carcinogen: 7,12-DIMETHYLBENZ[A]ANTHRACENE, 57-97-6, Dose [Inhibitor]: 0.2% IN DIET, UNSATURATED FAT THROUGHOUT THE EXPERIMENT, (STUDY DURATION: 32 WK), Species: RAT, Strain/Sex: SPRAGUE-DAWLEY/FEMALE, Target Tissue: Type of Lesion: MAMMARY GLAND: PARENCHYMAL CARCINOMA, Dose [Carcinogen]: 10 MG IN 1 ML CORN OIL AT 50 D OF AGE CELL ONCE, Promoter: NONE USED","100%, 100%, 0%, not calculated"
same,"tumour outcome (control, treated, inhibition, significance)","Carcinogen: 7,12-DIMETHYLBENZ[A]ANTHRACENE, 57-97-6, Dose [Inhibitor]: 0.2% IN HIGH POLYUNSATURATED FAT DIET DAILY STARTING 29 D BEFORE CARCINOGEN TREATMENT AND CONTINUING FOR DURATION OF STU, Species: RAT, Strain/Sex: SPRAGUE-DAWLEY/FEMALE, Target Tissue: Type of Lesion: MAMMARY GLAND: ADENOCARCINOMA, Dose [Carcinogen]: 10 MG IN 1 ML STRIPPED CORN OIL ONCE AT 50 D OF AGE, Promoter: NONE USED","100%, 100%, 0%, not calculated"
